# Results taken from patent US10323026B2, “Heterocyclic compound” (Takeda Pharmaceutical Company Limited, priority 2016, dated 2019).
# Biological target: T1, His-hMAGL (recombinant polyhistidine tagged human MAGL protein) (Homo sapiens, UniProt Q99685)
# T1 construct: polyhistidine (His) (N); made in house; host or cells: E. coli BL21(DE3)
# T1 sequence (Q99685 1-303): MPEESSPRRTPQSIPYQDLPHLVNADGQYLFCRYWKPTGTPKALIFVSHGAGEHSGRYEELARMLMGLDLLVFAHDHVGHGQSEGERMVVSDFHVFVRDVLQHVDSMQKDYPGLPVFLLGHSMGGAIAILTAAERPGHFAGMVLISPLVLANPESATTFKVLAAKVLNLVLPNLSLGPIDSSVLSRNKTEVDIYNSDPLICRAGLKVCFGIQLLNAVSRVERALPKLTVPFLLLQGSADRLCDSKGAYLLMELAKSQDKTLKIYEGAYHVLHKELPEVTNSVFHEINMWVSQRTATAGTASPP
# Test: Measurement of MAGL inhibitory activity (RapidFire-mass spectrometry of arachidonic acid produced from 2-arachidonylglycerol)
# Type: biochemical
# Settings: test compound 10 μM; His-hMAGL; substrate 2-arachidonylglycerol; 60 min preincubation
# Description: Furthermore, acetonitrile (50 μL) containing 3 μM arachidonic acid-d8 (Cayman Chemical Company) was added and the mixture was stirred.
# The amount of arachidonic acid in the obtained enzyme reaction mixture was calculated by measuring by RapidFire-mass spectrometry and correcting by the amount of arachidonic acid-d8. High Throughput online solid phase extraction was performed using RapidFire 300™ system (Agilent Technologies, Inc.). Samples were loaded on SPE C4 cartridge (Agilent Technologies, Inc.) and desalted with 0.2 (v/v) % acetic acid (Wako Pure Chemical Industries, Ltd.) in ultrapure water/acetonitrile (70/30, v/v) at a flow rate of 1.5 mL/min, eluted at a flow rate of 0.5 mL/min with 0.2(v/v) % acetic acid dissolved in acetonitrile/ultrapure water (90/10, v/v), and injected into the mass spectrometry part. The injection needle was washed with ultrapure water (500 millisecond) and acetonitrile (500 millisecond) to minimize carry-over. […] The RapidFire300 system was controlled by RapidFire UI software version 3.6 (Agilent Technologies, Inc.).
# The mass spectrometry of the resultant product was performed using API4000™ triple quadrupole mass spectrometer (AB SCIEX) equipped with an electrospray ion source (TurboIon Spray™) in a negative selected reaction monitoring (SRM) mode. The conditions of SRM are shown below. The parameters of the instrument were optimized as follows: capillary temperature 600° C., ion spray voltage −4.5 kV, collision gas 8, curtain gas 15 psi, ion source gas 1 60 psi, ion source gas 2 60 psi. The mass spectrometer was controlled by Analyst™ software version 1.5.1 (AB SCIEX). The peak area integration was analyzed using RapidFire integrator software version 3.6 (Agilent Technologies, Inc.).
# MAGL inhibitory rate (%) was calculated according to the following calculation formula. (1-(arachidonic acid production amount of test compound addition group−arachidonic acid production amount of enzyme-free group)÷(arachidonic acid production amount of test compound-free group−arachidonic acid production amount of enzyme-free group))×100
row,Compound,% inhibition (10 μM) [%]
1,"CC(Oc1ccc(C(F)(F)F)cc1F)C1CN(C(=O)[C@H]2C[C@]3(COC(=O)N3)C2)C1 (some centres unmarked) [Example 13, (2s,4s)-2-((3-(1-(2-fluoro-4-(trifluoromethyl)phenoxy)ethyl)azetidin-1-yl)carbonyl)-7-oxa-5-azaspiro[3.4]octan-6-one]",100
2,"CC(Oc1c(F)cc(F)cc1F)C1CCN(C(=O)[C@H]2C[C@]3(COC(=O)N3)C2)CC1 (some centres unmarked) [Example 87, (2s,4s)-2-((4-(1-(2,4,6-trifluorophenoxy)ethyl)piperidin-1-yl)carbonyl)-7-oxa-5-azaspiro[3.4]octan-6-one]",100
3,"CC(Oc1c(F)cc(F)cc1F)C1CCN(C(=O)[C@H]2C[C@]3(COC(=O)N3)C2)CC1 (some centres unmarked) [Example 88, (2s,4s)-2-((4-(1-(2,4,6-trifluorophenoxy)ethyl)piperidin-1-yl)carbonyl)-7-oxa-5-azaspiro[3.4]octan-6-one]",100
4,"CC(Oc1ccc(C(F)(F)F)cc1F)C1CN(C(=O)[C@H]2C[C@]3(COC(=O)N3)C2)C1 (some centres unmarked) [Example 14, (2s,4s)-2-((3-(1-(2-fluoro-4-(trifluoromethyl)phenoxy)ethyl)azetidin-1-yl)carbonyl)-7-oxa-5-azaspiro[3.4]octan-6-one]",100

# Same assay, conditions: test compound 10 μM; His-hMAGL; substrate 2-arachidonylglycerol; 60 min preincubation; 10 µM
row,Compound,% inhibition (10 μM) [%]
1,"CC(Oc1ccc(F)c(F)c1F)C1CCN(C(=O)[C@H]2C[C@]3(COC(=O)N3)C2)CC1 (some centres unmarked) [Example 82, (2s,4s)-2-((4-(1-(2,3,4-trifluorophenoxy)ethyl)piperidin-1-yl)carbonyl)-7-oxa-5-azaspiro[3.4]octan-6-one]",100
2,"CC(Oc1ccc(F)c(F)c1F)C1CCN(C(=O)[C@H]2C[C@]3(COC(=O)N3)C2)CC1 (some centres unmarked) [Example 81, (2s,4s)-2-((4-(1-(2,3,4-trifluorophenoxy)ethyl)piperidin-1-yl)carbonyl)-7-oxa-5-azaspiro[3.4]octan-6-one]",100

# Same assay, conditions: test compound 10 μM; His-hMAGL; substrate 2-arachidonylglycerol; 60 min preincubation; read-out: % inhibition (10 μM)
row,Compound,inhibition at 10 µM [%]
1,"O=C1N[C@]2(CO1)C[C@H](C(=O)N1CC(OCc3ccc(OC(F)(F)F)c(Cl)c3)C1)C2 [Example 116, (2s,4s)-2-((3-((3-chloro-4-(trifluoromethoxy)benzyl)oxy)azetidin-1-yl)carbonyl)-7-oxa-5-azaspiro[3.4]octan-6-one]",100
2,"CC(Oc1ccc(Cl)cc1F)C1CCN(C(=O)[C@H]2C[C@]3(COC(=O)N3)C2)CC1 (some centres unmarked) [Example 18, (2s,4s)-2-((4-(1-(4-chloro-2-fluorophenoxy)ethyl)piperidin-1-yl)carbonyl)-7-oxa-5-azaspiro[3.4]octan-6-one]",101
3,"O=C1N[C@]2(CO1)C[C@H](C(=O)N1CC(COc3c(Cl)cc(F)cc3Cl)C1)C2 [Example 75, (2s,4s)-2-((3-((2,6-dichloro-4-fluorophenoxy)methyl)azetidin-1-yl)carbonyl)-7-oxa-5-azaspiro[3.4]octan-6-one]",100
4,"CC1(C2CCN(C(=O)[C@H]3C[C@]4(COC(=O)N4)C3)CC2)Cc2cc(F)cc(F)c2O1 (some centres unmarked) [Example 16, (2s,4s)-2-((4-(5,7-difluoro-2-methyl-2,3-dihydro-1-benzofuran-2-yl)piperidin-1-yl)carbonyl)-7-oxa-5-azaspiro[3.4]octan-6-one]",100
5,"O=C1N[C@]2(CO1)C[C@H](C(=O)N1CC(COc3cc(C(F)(F)F)cc(C(F)(F)F)c3)C1)C2 [Example 83, (2s,4s)-2-((3-((3,5-bis(trifluoromethyl)phenoxy)methyl)azetidin-1-yl)carbonyl)-7-oxa-5-azaspiro[3.4]octan-6-one]",100
6,"O=C1N[C@]2(CO1)C[C@H](C(=O)N1CC(CC(F)(F)c3ccc(C(F)(F)F)c(F)c3F)C1)C2 [Example 103, (2s,4s)-2-((3-(2-(2,3-difluoro-4-(trifluoromethyl)phenyl)-2,2-difluoroethyl)azetidin-1-yl)carbonyl)-7-oxa-5-azaspiro[3.4]octan-6-one]",100
7,"N#Cc1cc(C(F)(F)F)ccc1OCC1CCN(C(=O)[C@H]2C[C@]3(COC(=O)N3)C2)CC1 [Example 128, 2-((1-(((2s,4s)-6-oxo-7-oxa-5-azaspiro[3.4]oct-2-yl)carbonyl)piperidin-4-yl)methoxy)-5-(trifluoromethyl)benzonitrile]",100
8,"O=C1N[C@]2(CO1)C[C@H](C(=O)N1CCC(COc3ccc(C(F)(F)F)cc3F)CC1)C2 [Example 26, (2s,4s)-2-((4-((2-fluoro-4-(trifluoromethyl)phenoxy)methyl)piperidin-1-yl)carbonyl)-7-oxa-5-azaspiro[3.4]octan-6-one]",101
9,"O=C1N[C@]2(CO1)C[C@H](C(=O)N1CCC(OCc3ccc(Cl)cc3Cl)CC1)C2 [Example 24, (2s,4s)-2-((4-((2,4-dichlorobenzyl)oxy)piperidin-1-yl)carbonyl)-7-oxa-5-azaspiro[3.4]octan-6-one]",100
10,"CC(Oc1ccc(C(F)(F)F)cc1F)C1CCN(C(=O)[C@H]2C[C@]3(COC(=O)N3)C2)CC1 (some centres unmarked) [Example 35, (2s,4s)-2-((4-(1-(2-fluoro-4-(trifluororoethyl)phenoxy)ethyl)piperidin-1-yl)carbonyl)-7-oxa-5-azaspiro[3.4]octan-6-one]",101
11,"CC1(C2CCN(C(=O)[C@H]3C[C@]4(COC(=O)N4)C3)CC2)Cc2cc(F)cc(Cl)c2O1 (some centres unmarked) [Example 27, (2s,4s)-2-((4-(7-chloro-5-fluoro-2-methyl-2,3-dihydro-1-benzofuran-2-yl)piperidin-1-yl)carbonyl)-7-oxa-5-azaspiro[3.4]octan-6-one]",101
12,"CC1(C2CCN(C(=O)[C@H]3C[C@]4(COC(=O)N4)C3)CC2)Cc2ccc(C(F)(F)F)cc2O1 (some centres unmarked) [Example 63, (2s,4s)-2-((4-(2-methyl-6-(trifluoromethyl)-2,3-dihydro-1-benzofuran-2-yl)piperidin-1-yl)carbonyl)-7-oxa-5-azaspiro[3.4]octan-6-one]",100
13,"CC(Oc1c(F)ccc(F)c1F)C1CCN(C(=O)[C@H]2C[C@]3(COC(=O)N3)C2)CC1 (some centres unmarked) [Example 36, (2s,4s)-2-((4-(1-(2,3,6-trifluorophenoxy)ethyl)piperidin-1-yl)carbonyl)-7-oxa-5-azaspiro[3.4]octan-6-one]",101
14,"CC(Oc1c(F)cc(F)cc1F)C1CCN(C(=O)[C@H]2C[C@]3(COC(=O)N3)C2)CC1 (some centres unmarked) [Example 85, (2s,4s)-2-((4-(1-(2,4,6-trifluorophenoxy)ethyl)piperidin-1-yl)carbonyl)-7-oxa-5-azaspiro[3.4]octan-6-one]",100
15,"O=C1N[C@]2(CO1)C[C@H](C(=O)N1CCC(COc3ccc(CCF)cc3F)CC1)C2 [Example 64, (2s,4s)-2-((4-((2-fluoro-4-(2-fluoroethyl)phenoxy)methyl)piperidin-1-yl)carbonyl)-7-oxa-5-azaspiro[3.4]octan-6-one]",101
16,"CC(c1ccccc1)(c1ccccc1)C1CCN(C(=O)[C@H]2C[C@]3(COC(=O)N3)C2)CC1 [Example 51, (2s,4s)-2-((4-(1,1-diphenylethyl)piperidin-1-yl)carbonyl)-7-oxa-5-azaspiro[3.4]octan-6-one]",101
17,"O=C1N[C@]2(CO1)C[C@H](C(=O)N1CCC(COc3ccc(N4CC(F)C4)cc3Cl)CC1)C2 [Example 49, (2s,4s)-2-((4-((2-chroro-4-(3-fluoroazetidin-1-yl)phenoxy)methyl)piperidin-1-yl)carbonyl)-7-oxa-5-azaspiro[3.4]octan-6-one]",101
18,"O=C1N[C@]2(CO1)C[C@H](C(=O)N1CC(OCc3ccc(C(F)(F)F)c(Cl)c3F)C1)C2 [Example 102, (2s,4s)-2-((3-((3-chloro-2-fluoro-4-(trifluoromethyl)benzyl)oxy)azetidin-1-yl)carbonyl)-7-oxa-5-azaspiro[3.4]octan-6-one]",100
19,"O=C1N[C@]2(CO1)C[C@H](C(=O)N1CC(OCc3cc(Cl)c(F)c(Cl)c3)C1)C2 [Example 106, (2s,4s)-2-((3-((3,5-dichloro-4-fluorobenzyl)oxy)azetidin-1-yl)carbonyl)-7-oxa-5-azaspiro[3.4]octan-6-one]",100
20,"O=C1N[C@]2(CO1)C[C@H](C(=O)N1CC(OCc3cc(F)c(C(F)(F)F)cc3F)C1)C2 [Example 101, (2s,4s)-2-((3-((2,5-difluoro-4-(trifluoromethyl)benzyl)oxy)azetidin-1-yl)carbonyl)-7-oxa-5-azaspiro[3.4]octan-6-one]",100
